According to patent publication US20010036955A1, “Method of inhibiting angiogenesis” (Genentech, Inc., priority 1998, published 2001):
pIC50: −log10 of the molar value. *1 amine or outer side, *2 acyl side, *3 side chain or, on linkers, in order; H or OH if unused. Where a SMILES comes first, the peptide text is derived from it. Bridges are numbered along the chain shown (N, C = ends). Roman numbers before positions name the chains, in order. [ ]: non-standard residue; d: D form. Actinocin(9to1) = Cc1c2oc3c(C)ccc(C(=O)[*:1])c3nc-2c(C(=O)[*:2])c(N)c1=O; NMeV = CN[C@H](C(=O)O)C(C)C; Sar = CNCC(=O)O

Tests used:
Type in all cases: cell-based, human
HUVEC tube formation [1] = assay: Endothelial tube assay (number of tubes, three-dimensional collagen gels); details: for pIC50: Homo sapiens, HUVEC in collagen gels with bFGF, VEGF and PMA, tubes counted at 48 hr, read-out: inhibition of tube formation, IC50; for inhibition of tube formation (FIG. 3B): at 100 μM; for formation of tube-like structures: endothelial cells in three-dimensional type I collagen lattice
Experimental: In this model, endothelial cells are suspended in a three-dimensional collagen lattice of type I collagen and undergo rapid morphogenesis. Within 4 hr numerous vacuoles are observed in the majority of endothelial cells; at 24 hr the formation of tube-like structures can be observed and at 48 hr an interconnected network of tube-like structures is observed.
Collagen gels were formed by mixing together ice-cold gelatin solution (10× M199, H2O, 0.53M NaHCO3, 200 mM L-glutamine, type I collagen, 0.1M NaOH, 100:27.2:50:10:750:62.5 by volume) and cells in 1× basal medium at a concentration of 3×10^6 cells/ml at a ratio of 4 volumes gelatin solution: 1 volume of cells. After gelation at 37 for 30 min, the gels were overlaid with IX basal medium consisting of M199 supplemented with 1%FBS, 1× ITS, 2 mM L-glutamine, 50 μg/ml ascorbic acid, 26.5 mM NaHCO3, 100 U/ml penicillin and 100 U/mil streptomycin supplemented with 40 ng/ml BFGF, 40 ng/ml VEGF and 80 nM phorbol myristate acetate (PMA). All drugs were added to the IX basal medium immediately after gelation. To quantitate tube formation, the number of tubes per high power (20× field) was determined 48 hr after addition of the basal medium Five independent fields separated by 100 μm optical sections were assessed for each well. Cytotoxicity was assessed using an XTT kit from Boehringer Mannheim (Indianapolis, Ind.).

HUVEC proliferation = assay: Proliferation assay (BrdU incorporation); details: type I collagen-coated surface, VEGF, bFGF and PMA
Experimental: Cells were cultured in above medium in the presence of drugs or vehicle for 4 hr. 5 μl (100 μM) of 5′-bromo-2′-deoxyuridine (BrdU) was added in a final volume of 100 μl/well and cells were incubated for another 20 hr. BrdU incorporation was evaluated by an ELISA kit from Boehringer Mannheim (Indianapolis, Ind.).

HUVEC tube formation [2] = assay: Endothelial tube assay of Example 7 (average tube length, 3-D type I collagen gels)
Experimental: Collagen gels were formed by mixing together ice-cold gelation solution (IOX M199, H2O, 0.53M NaHCO3, 200 mM L-glutamine, type I collagen, 0.1M NaOH, 100:27.2:50:10:750:62.5 by volume) and cells in 1× basal medium (see below) at a concentration of 3×10^6 cells/ml at a ratio of 4 volumes gelation solution: 1 volume of cells (18). After gelation at 37° C. for 30 min, the gels were overlaid with 1× basal medium consisting of M199 supplemented with […], 1× ITS, 2 mM L-glutamine, […] ascorbic acid, 26.5 mM NaHCO3, 100 U/ml penicillin and 100 U/ml streptomycin supplemented with 40 ng/ml bFGF, 40 ng/ml VEGF, 80 nM PMA or the combination of PMA (80 nM), bFGF and VEGF (40 ng/ml each). All drugs were added to the 1× basal medium immediately after gelation. To quantify tube formation, the average tube length was determined by measuring total tube length (long axis) in three consecutive layers of a low power (10×) field using Openlab software (Improvision Inc, England). Each layer was separated by 100 μm.

MMP-9 mRNA = assay: Real time RT-PCR (Taqman) assay in HUVEC, Example 7; details: for MMP-9 mRNA levels: 40 ng/ml, at 4 h and 24 h
Experimental: (§1) Total RNA was extracted from HUVEC cultured in 3-D type I collagen gels for various times in 1× basal medium supplemented with 40 ng/ml bFGF, 40 ng/ml VEGF, […] PMA or the combination of PMA (80 nM), bFGF and VEGF (40 ng/mil each). […] For all mRNAs evaluated a sample of total RNA (100 ng) was added to a 50 μl RT-PCR reaction mixture according to the manufacturer's protocol (Roche Molecular Systems, Inc., Branchburg, N.J.). The thermal cycling conditions included 1 cycle at 48° C. for 30 min, 1 cycle at 95° C. for 10 min, 40 cycles at 95° C. for 15 s, at 60° C. for 1 min, and finally hold at 25° C. for 2 min. Standard curves for expression of each gene were generated by serial dilution of the total RNA isolated from U937 cells. […] Therefore, the relative mRNA expression of each gene was normalized to the level of GAPDH in the same RNA preparation.

MMP-2 secretion = assay: Zymographic assay of HUVEC conditioned media
Experimental: (§2) The presence of gelatinases MMP-2 and -9 in conditioned media from cultured HUVEC in 3-D type I collagen gels was analyzed by zymography. Media from different treatments or from different time points were concentrated and then 10 μl aliquots were mixed with 2 × sample buffer without reducing agent or heating. Samples were loaded on a 10% polyacrilamide gel containing 0.1% gelatin (Novex, San Diego, Calif.) for electrophoresis. In addition to using regular molecular weight markers the MMP-2 and -9 zymographic standards (Chemicon, Temecula, Calif.) were used as standards for gelatinases. The gels were incubated for 30 min at room temperature in renaturing buffer and in developing buffer for overnight at 37° C., and then stained with 0.25% Coomassie brilliant blue (Sigma). Gelatinase activity was identified as lightly stained or clear bands following destaining.

MMP-9 secretion = assay: Zymographic assay of HUVEC conditioned media
Experimental: as §2

MMP-2 mRNA = assay: Real time RT-PCR (Taqman) assay in HUVEC, Example 7; details: 100 μM; 24 h
Experimental: as §1

[3] = at concentrations of up to 100 μM
[4] = PMA 0.8, 8, 80 and 800 nM for 24 h

Cc1c(C)c2c(c(C)c1O)CCC(C)(COc1ccc(CC3SC(=O)NC3=O)cc1)O2 (single isomer, unassigned; (+)) [troglitazone, (+)-5-[[4-[(3,4-dihydro-6-hydroxy-2,5,7,8-tetramethyl-2H-1-benzopyran-2-yl)methoxy]phenyl]methyl]-2,4-thiazolidinedione]
pIC50 (HUVEC tube formation [1]): 5.21

CC1=C(/C=C/C(C)=C\C=C\C(C)=C\C(=O)O)C(C)(C)CCC1 [9-cis-retinoic acid]
effect on tube formation (HUVEC tube formation [1]; 9-cis-retinoic acid 30 μM alone): no significant effect

CN(CCOc1ccc(CC2SC(=O)NC2=O)cc1)c1ccccn1 (stereo not shown) [BRL49653, 5-[4-[2-[N-methyl-N-(2-pyridyl)amino]ethoxy]benzyl]thiazolidine-2,4-dione]
pIC50 (HUVEC proliferation; Homo sapiens, HUVEC, read-out: inhibition of endothelial cell (HUVEC) proliferation, IC50): 4.80

CCCc1c(OCCCCc2nnn[nH]2)ccc(C(C)=O)c1O [LY 171883]
inhibition of tube formation (FIG. 3B) (HUVEC tube formation [1]): do not inhibit | inhibition of tube formation (HUVEC tube formation [1]; [3]): did not significantly inhibit

CCCCC[C@H](O)/C=C/[C@H]1[C@H](O)CC(=O)[C@@H]1CCCCCCC(=O)O [PGE1]
effect on HUVEC proliferation (HUVEC proliferation): did not affect

CCCCC[C@H](O)/C=C/[C@H]1[C@H](O)CC(=O)[C@@H]1C/C=C\CCCC(=O)O [PGE2]
effect on HUVEC proliferation (HUVEC proliferation): did not affect

CCCCCCCCCCCCCC(=O)O[C@@H]1[C@@H](C)[C@@]2(O)[C@@H](C=C(CO)C[C@]3(O)C(=O)C(C)=C[C@@H]23)[C@@H]2C(C)(C)[C@]12OC(C)=O [PMA, phorbol 12-myristate 13-acetate]
concentration giving maximal induction of tube formation (HUVEC tube formation [2]; [4]): 80 nM | tube formation (average tube length) (HUVEC tube formation [2]; [4]): dose-dependent increase | increase of MMP-9 mRNA levels between 24 h and 4 h (MMP-9 mRNA; HUVEC in 3-D collagen gels, PMA 80 nM, bFGF and VEGF 40 ng/ml each): more than 2 fold | MMP-2 secretion into the culture medium (MMP-2 secretion; [4]): dose-dependent stimulation | active MMP-2 in supernatants compared with either growth factor alone (MMP-2 secretion; gelatin zymography, PMA in the absence or presence of FGF and VEGF): more active MMP-2 | MMP-9 secretion into the culture medium (MMP-9 secretion; [4]): dose-dependent stimulation | zymogen form of MMP-9 (92 kD) in culture supernatants (MMP-9 secretion; gelatin zymography, PMA or PMA in combination with bFGF and VEGF): detected

Cc1cccc(Nc2cc(Cl)nc(SCC(=O)O)n2)c1C [WY 14643]
inhibition of tube formation (FIG. 3B) (HUVEC tube formation [1]): do not inhibit | inhibition of tube formation (HUVEC tube formation [1]; [3]): did not significantly inhibit | HUVEC tube formation (HUVEC tube formation [2]; 100 μM, 3-D collagen gels): do not inhibit | MMP-2 mRNA expression (MMP-2 mRNA): did not alter | MMP-9 mRNA expression (MMP-9 mRNA; 100 μM, 24 h): did not alter | MMP-2 protein secretion (MMP-2 secretion; 100 μM, 24 h): did not alter | MMP-9 protein secretion (MMP-9 secretion; 100 μM, 24 h): did not alter

Cc1c2oc3c(C)ccc(C(=O)N[C@@H]4C(=O)N[C@H](C(C)C)C(=O)N5CCC[C@H]5C(=O)N(C)CC(=O)N(C)[C@@H](C(C)C)C(=O)O[C@@H]4C)c3nc-2c(C(=O)N[C@@H]2C(=O)N[C@H](C(C)C)C(=O)N3CCC[C@H]3C(=O)N(C)CC(=O)N(C)[C@@H](C(C)C)C(=O)O[C@@H]2C)c(N)c1=O [actinomycin D] (I: T[dV]P[Sar][NMeV] / II: T[dV]P[Sar][NMeV]; ester I:1-I:C, II:1-II:C; linker I:N-II:N via Actinocin(9to1))
formation of tube-like structures (HUVEC tube formation [1]): completely block

CC1(COc2ccc(CC3SC(=O)NC3=O)cc2)CCCCC1 (stereo not shown) [ciglitizone]
pIC50 (HUVEC tube formation [1]): 5.57

C[C@@H]1C[C@@H]([C@H](O)CC2CC(=O)NC(=O)C2)C(=O)[C@@H](C)C1 [cycloheximide]
formation of tube-like structures (HUVEC tube formation [1]): completely block

CCCCCCCC/C=C\CCCCCCCCCCCC(=O)O [erucic acid]
inhibition of tube formation (HUVEC tube formation [1]; 200 μM): did not significantly inhibit | inhibition of tube formation (FIG. 3B) (HUVEC tube formation [1]): do not inhibit

VEGF
MMP-9 mRNA levels (MMP-9 mRNA): at or below the limits of detection

bFGF: recombinant basic fibroblast growth factor
MMP-9 mRNA levels (MMP-9 mRNA): at or below the limits of detection
